# Assay results reported in ChEMBL document CHEMBL2203185, “Development of sub-nanomolar dipeptidic ligands of neuropeptide FF receptors” (Bioorg Med Chem Lett, 2012).
# Assays:
# [1] = biological target: T1, Neuropeptide FF receptor 2 (Homo sapiens, UniProt Q9Y5X5); assay: Displacement of [3H]FFRF-NH2 from human flag-tagged NPFF2 receptor expressed in CHO cells by scintillation counting; format: cell-based
# [2] = biological target: T1, Neuropeptide FF receptor 2; assay: Displacement of [3H]FFRF-NH2 from human flag-tagged NPFF2 receptor expressed in CHO cells at 500 nM by scintillation counting; format: cell-based
# [3] = biological target: T1, Neuropeptide FF receptor 2; assay: Displacement of [3H]FFRF-NH2 from human flag-tagged NPFF2 receptor expressed in CHO cells at 5 uM by scintillation counting; format: cell-based
# [4] = biological target: T2, Neuropeptide FF receptor 1 (Homo sapiens, UniProt Q9GZQ6); assay: Displacement of [3H]FFRF-NH2 from human flag-tagged NPFF1 receptor expressed in CHO cells by scintillation counting; format: cell-based
# T2 sequence (Q9GZQ6 whole entry): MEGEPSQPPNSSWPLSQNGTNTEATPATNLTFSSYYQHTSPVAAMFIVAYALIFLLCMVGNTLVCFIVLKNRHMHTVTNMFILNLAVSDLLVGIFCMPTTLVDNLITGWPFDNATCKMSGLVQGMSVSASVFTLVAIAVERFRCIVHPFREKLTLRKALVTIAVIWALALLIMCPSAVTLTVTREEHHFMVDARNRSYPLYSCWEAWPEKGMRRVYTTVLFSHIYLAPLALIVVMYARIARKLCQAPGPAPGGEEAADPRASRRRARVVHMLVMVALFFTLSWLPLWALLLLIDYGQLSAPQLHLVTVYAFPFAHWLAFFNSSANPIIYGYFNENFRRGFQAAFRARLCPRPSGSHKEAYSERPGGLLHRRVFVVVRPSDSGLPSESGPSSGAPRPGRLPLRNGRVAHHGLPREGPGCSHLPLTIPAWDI
# [5] = biological target: T2, Neuropeptide FF receptor 1; assay: Displacement of [3H]FFRF-NH2 from human flag-tagged NPFF1 receptor expressed in CHO cells at 500 nM by scintillation counting; format: cell-based
# [6] = biological target: T2, Neuropeptide FF receptor 1; assay: Displacement of [3H]FFRF-NH2 from human flag-tagged NPFF1 receptor expressed in CHO cells at 5 uM by scintillation counting; format: cell-based
# [7] = biological target: T1, Neuropeptide FF receptor 2; assay: Ratio of RF2 Ki to compound Ki for human flag-tagged NPFF2 receptor
# T1 sequence (Q9Y5X5 whole entry): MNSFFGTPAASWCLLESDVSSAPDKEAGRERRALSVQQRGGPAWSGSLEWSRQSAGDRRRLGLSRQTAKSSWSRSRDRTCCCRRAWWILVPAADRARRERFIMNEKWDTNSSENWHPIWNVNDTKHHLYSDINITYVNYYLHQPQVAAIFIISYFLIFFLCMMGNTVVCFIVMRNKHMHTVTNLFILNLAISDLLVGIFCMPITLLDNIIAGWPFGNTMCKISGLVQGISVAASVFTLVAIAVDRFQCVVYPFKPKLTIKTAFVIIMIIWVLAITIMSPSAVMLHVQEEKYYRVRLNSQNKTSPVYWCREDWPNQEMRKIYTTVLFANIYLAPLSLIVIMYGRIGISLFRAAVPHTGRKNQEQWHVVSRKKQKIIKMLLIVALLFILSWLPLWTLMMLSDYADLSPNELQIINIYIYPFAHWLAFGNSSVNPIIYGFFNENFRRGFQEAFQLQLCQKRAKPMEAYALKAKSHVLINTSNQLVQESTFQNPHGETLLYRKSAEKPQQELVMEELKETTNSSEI
Structure (SMILES),Ki [1] [nM],inhibition [2] [%],inhibition [3] [%],Ki [4] [nM],inhibition [5] [%],inhibition [6] [%],Ratio Ki [7]
N=C(N)NCCC[C@@H](NC(=O)C12CC3CC(CC(C3)C1)C2)C(=O)N[C@@H](Cc1ccccc1)C(N)=O,142,21,60,29,85,100,
NC(=O)[C@@H](Cc1ccccc1)NC(=O)[C@@H](CCCN=C(N)N)NC(=O)c1ccc(-c2ccccc2)cc1,417,,,167,,,
N=C(N)NCCC[C@H](NC(=O)C12CC3CC(CC(C3)C1)C2)C(=O)N[C@H](Cc1ccccc1)C(N)=O,424,4,49,114,18,79,
NC(=O)[C@@H](Cc1ccccc1)NC(=O)[C@@H](CCCN=C(N)N)NC(=O)Cc1ccccc1,3200,,,273,,,
NC(=O)[C@H](Cc1ccccc1)NC(=O)[C@H](CCCN=C(N)N)NC(=O)c1ccccc1-c1ccccc1,590,,,0.32,,,
NC(=O)[C@@H](Cc1ccccc1)NC(=O)[C@@H](CCCN=C(N)N)NC(=O)c1cccc(-c2ccccc2)c1,672,,,110,,,
NC(=O)[C@H](Cc1ccccc1)NC(=O)[C@@H](CCCN=C(N)N)NC(=O)c1cccc(-c2ccccc2)c1,9,,,6,,,
NC(=O)[C@H](Cc1ccccc1)NC(=O)[C@H](CCCN=C(N)N)NC(=O)C12CC3CC(CC(C3)C1)C2,43,,,22,,,

# Further lines, results first:
Ki [1] [nM],inhibition [2] [%],inhibition [3] [%],Ki [4] [nM],inhibition [5] [%],inhibition [6] [%],Ratio Ki [7],Structure (SMILES)
136,38,70,378,41,89,,N=C(N)NCCC[C@H](NC(=O)c1ccc2cc[nH]c2c1)C(=O)N[C@@H](Cc1ccccc1)C(N)=O
4,65,90,2,89,97,,N=C(N)NCCC[C@@H](NC(=O)c1ccccc1-c1ccccc1)C(=O)N[C@@H](Cc1ccccc1)C(N)=O
92,32,92,23,66,99,,N=C(N)NCCC[C@H](NC(=O)c1ccccc1)C(=O)N[C@@H](Cc1ccccc1)C(N)=O
117,18,58,0.8,84,95,,N=C(N)NCCC[C@@H](NC(=O)/C=C/c1ccccc1)C(=O)N[C@@H](Cc1ccccc1)C(N)=O
2020,,,198,,,,NC(=O)[C@@H](Cc1ccccc1)NC(=O)[C@@H](CCCN=C(N)N)NC(=O)c1ccccc1
4,84,100,10,75,82,,N=C(N)NCCC[C@@H](NC(=O)C(c1ccccc1)c1ccccc1)C(=O)N[C@@H](Cc1ccccc1)C(N)=O
227,18,46,15,74,86,,N=C(N)NCCC[C@@H](NC(=O)C(c1ccccc1)c1ccccc1)C(=O)N[C@H](Cc1ccccc1)C(N)=O
22,55,92,11,80,90,5,N=C(N)NCCC[C@@H](NC(=O)c1ccccc1)C(=O)N[C@@H](Cc1ccccc1)C(N)=O
425,,,35,,,,NC(=O)[C@H](Cc1ccccc1)NC(=O)[C@@H](CCCN=C(N)N)NC(=O)Cc1ccccc1
206,5,60,106,11,85,,COc1cccc(C(=O)N[C@@H](CCCNC(=N)N)C(=O)N[C@@H](Cc2ccccc2)C(N)=O)c1
1620,0,14,84,55,82,,N=C(N)NCCC[C@@H](NC(=O)/C=C/c1ccccc1)C(=O)N[C@H](Cc1ccccc1)C(N)=O
